Several values for one entry are separate records, joined by “and”; a condition that tells them apart may be missing. Identical values can stand only once.
target: SARS-CoV-2_WT Mpro (Severe acute respiratory syndrome coronavirus 2, UniProt P0DTD1); assay: biochemical; conditions: 25 nM SARS-2 Mpro, 25 μM substrate, 30 min pre-incubation

Compound | IC50
Oc1ccc2c(c1)oc1c(-c3ccc(O)c(O)c3)c3c(O)nn(C4CCCCC4)c3nc12 [ID11, Oc1ccc2c(c1)oc1c(-c3ccc(O)c(O)c3)c3c(O)nn(C4CCCCC4)c3nc12] | < 100 µM and 54.4 µM
Oc1ccc(-c2c3oc4c(O)c(O)ccc4c3nc3c2c(O)nn3C2CCCCCC2)cc1O [ID14, Oc1ccc(-c2c3oc4c(O)c(O)ccc4c3nc3c2c(O)nn3C2CCCCCC2)cc1O] | < 100 µM
Oc1ccc(-c2c3oc4cc(O)ccc4c3nc3c2c(O)nn3C2CCCCCC2)cc1 [ID18, Oc1ccc(-c2c3oc4cc(O)ccc4c3nc3c2c(O)nn3C2CCCCCC2)cc1] | < 100 µM
Cc1c(O)ccc2c1oc1c(-c3ccc(O)c(O)c3)c3c(O)nn(C4CCCCC4)c3nc12 [ID20, Cc1c(O)ccc2c1oc1c(-c3ccc(O)c(O)c3)c3c(O)nn(C4CCCCC4)c3nc12] | < 100 µM
COc1cc(-c2c3oc4cc(O)ccc4c3nc3c2c(O)nn3C2CCCCC2)cc(O)c1O [ID32, COc1cc(-c2c3oc4cc(O)ccc4c3nc3c2c(O)nn3C2CCCCC2)cc(O)c1O] | < 100 µM
Oc1ccc(-c2c3oc4c(O)c(O)ccc4c3nc3c2c(O)nn3C2CCCCC2)cc1Cl [ID35, Oc1ccc(-c2c3oc4c(O)c(O)ccc4c3nc3c2c(O)nn3C2CCCCC2)cc1Cl] | < 100 µM and 59.4 µM
COc1cc(-c2c3oc4cc(O)ccc4c3nc3c2c(O)nn3C2CCCCCCC2)cc(O)c1O [ID41, COc1cc(-c2c3oc4cc(O)ccc4c3nc3c2c(O)nn3C2CCCCCCC2)cc(O)c1O] | < 100 µM
